Laboratory results: patent US20260297679A1, “ASSAYS FOR MONITORING INHIBITION OF RNA HELICASE DHX9” (ACCENT THERAPEUTICS, INC., priority 2023, published 2026)

How the values were obtained:
[1] = tested on: DHX9; test: qPCR (SYBR Green) of circular and linear RNAs in HCT116 cells after DHX9 inhibition; assay type: cell-based; conditions: 72 hours, FIG. 1
Method: This experiment was conducted to evaluate circular and linear formats of different mRNA in HCT116 cells after treatment with DHX9 inhibitors by Quantitative Polymerase Chain Reaction (qPCR).
HCT116 cells were obtained from ATCC (CCL-247) and were grown and assayed in McCoy's 5a growth media supplemented with 10% FBS.
The cells were plated at pre-determined cell densities in 384-well cell culture plates and incubated overnight in 37° C. at 5% CO2. In a separate plate, reference and test compounds were prepared in DMSO stock solution and serially diluted 3-fold for 10 points. Compound 7 (0.1% final DMSO concentration) was transferred to the cell plate in designated wells, and incubated 37° C. at 5% CO2 for 72 hours.
RNA was extracted from the cells using the SYBR Green Fast Advanced Cell-to-CT kit according to manufacturer's (Invitrogen) protocol, and cDNA was reverse transcribed using the High Capacity RNA-to-cDNA Kit according to the manufacturer's (Invitrogen) protocol. Using RT^2 SYBR Green ROX qPCR Mastermix (Invitrogen) and thermal cycler conditions for the QuantStudio Thermocycler, qPCR was carried out using the below custom primer sequences obtained at Integrated DNA Technologies (IDT):
Data analysis was performed by using the QuantStudio Thermocycler software to determine threshold Ct values. ΔCt for circRNA or linRNA is calculated by normalizing the target gene Ct to the GAPDH housekeeping gene Ct for each sample. The inhibition activity is calculated by the following formula, whereas: […]
ΔCts: Mean of Ct(target gene)−Mean of Ct(GAPDH) for each sample
ΔCtc: Mean of Ct(target gene)−Mean of Ct(GAPDH) for DMSO control.

[2] = tested on: human PBMCs; test: proliferation of human PBMCs (Cell-Titer Glo 2.0); assay type: cell-based; conditions: Compound 1 0.01 μM to 10 μM, 10 days; FIG. 8B
Method: Next, the proliferation of PMBCs was examined following treatment with DHX9 inhibitor using the following assay.
Human PBMCs were thawed from a frozen cryotube in a 37° C. water bath and transferred to a flask with medium X-Vivo 15 supplemented with 5% Fetal Bovine Serum (FBS), 1% PenStrep, and 1% Glutamax. Flasks were incubated at 37 C for 30 minutes. PBMCs were harvested from flask and counted. PBMCs were diluted in medium and added to 96 well plates at 100,000 PBMCs per well. A stimulus mixture containing IL-15 at 1 ng/well, IL-21 at 5 ng/well, and CD40L at 5 ng/well was added to each well. Test compounds were prepared in DMSO stock solution and serially diluted. Compound (0.1% final DMSO concentration) was added to each well. DMSO was used as a negative control (high control, HC) and staurosporine was used a positive control (low control, LC). Plates were incubated at 37 C for 0, 2, 4, 6, 8, 10 days. Every other day, medium was replenished with stimulus and diluted compounds.
At each CTG time point, plate was removed from incubator and Cell-Titer Glo 2.0 reagent was added to each well according to manufacturer's (Promega) protocol and detected on an Envision. The inhibition activity was calculated following the formula below:
% Inhibition=100×(ReadoutHC−ReadoutSample)/(ReadoutHC−ReadoutLC)
PBMCs were exposed to Compound 1 at concentrations ranging from 0.01 μM to 10 μM for 10 days. […]

Structure (SMILES) | induction of AKR1A1 circRNA (Alu-mediated) [1] | induction of BRIP1 circRNA (Alu-mediated) [1] | induction of DKC1 circRNA (Alu-mediated) [1] | induction of SETD3 circRNA (non-Alu-mediated) [1] | proliferation of PBMCs [2]
CS(=O)(=O)Nc1cccc(NC(=O)c2cc(Br)cs2)c1 [Compound 7, 4-bromo-N-(3-methanesulfonamidophenyl)thiophene-2-carboxamide] | induced | induced | induced | no induction of SETD3 cirRNA was observed | –
CN[C@@H]1C[C@H]2O[C@@](C)([C@@H]1OC)n1c3ccccc3c3c4c(c5c6ccccc6n2c5c31)C(=O)NC4 [staustoporine, staurosporine, reference compound] | – | – | – | – | inhibited proliferation of PBMCs
